# System: SEM cells
# Experiment: cell viability relative to DMSO control; higher = less cytotoxic
# Details: 48 h
# How it was run: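 Leukemia cells (NOMO1 or SEM, 500 cells/well; P12-Ichikawa, 1000 cells/well) were seeded in 5 μl in 1536-well plates after at least four passages of adaptation to each medium. They received library compounds in DMSO by pin dosing, 11 threefold points from 47 μM to 0.79 nM. Luminescence with CellTiter-Glo One was read after 48 h at 37°C. Viability is stated per plate relative to DMSO wells, with cell-free wells as background.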
# [1] = HPLM + 10% dialyzed FBS, 0.000781 µM
# [2] = HPLM + 10% dialyzed FBS, 0.00234 µM
# [3] = HPLM + 10% dialyzed FBS, 0.00702 µM
# [4] = HPLM + 10% dialyzed FBS, 0.0211 µM
# [5] = HPLM + 10% dialyzed FBS, 0.0632 µM
# [6] = HPLM + 10% dialyzed FBS, 0.19 µM
# [7] = HPLM + 10% dialyzed FBS, 0.569 µM
# [8] = HPLM + 10% dialyzed FBS, 1.71 µM
# [9] = HPLM + 10% dialyzed FBS, 5.12 µM
# [10] = HPLM + 10% dialyzed FBS, 15.4 µM
# [11] = HPLM + 10% dialyzed FBS, 46.1 µM
# [12] = RPMI 5 mM glucose + 10% FBS, 0.000781 µM
# [13] = RPMI 5 mM glucose + 10% FBS, 0.00234 µM
# [14] = RPMI 5 mM glucose + 10% FBS, 0.00702 µM
# [15] = RPMI 5 mM glucose + 10% FBS, 0.0211 µM
# [16] = RPMI 5 mM glucose + 10% FBS, 0.0632 µM
# [17] = RPMI 5 mM glucose + 10% FBS, 0.19 µM
# [18] = RPMI 5 mM glucose + 10% FBS, 0.569 µM
# [19] = RPMI 5 mM glucose + 10% FBS, 1.71 µM
# [20] = RPMI 5 mM glucose + 10% FBS, 5.12 µM
# [21] = RPMI 5 mM glucose + 10% FBS, 15.4 µM
# [22] = RPMI 5 mM glucose + 10% FBS, 46.1 µM
# [23] = RPMI 5 mM glucose + 10% dialyzed FBS, 0.000781 µM
# [24] = RPMI 5 mM glucose + 10% dialyzed FBS, 0.00234 µM
# [25] = RPMI 5 mM glucose + 10% dialyzed FBS, 0.00702 µM
# [26] = RPMI 5 mM glucose + 10% dialyzed FBS, 0.0211 µM
# [27] = RPMI 5 mM glucose + 10% dialyzed FBS, 0.0632 µM
# [28] = RPMI 5 mM glucose + 10% dialyzed FBS, 0.19 µM
# [29] = RPMI 5 mM glucose + 10% dialyzed FBS, 0.569 µM
# [30] = RPMI 5 mM glucose + 10% dialyzed FBS, 1.71 µM
# [31] = RPMI 5 mM glucose + 10% dialyzed FBS, 5.12 µM
# [32] = RPMI 5 mM glucose + 10% dialyzed FBS, 15.4 µM
# [33] = RPMI 5 mM glucose + 10% dialyzed FBS, 46.1 µM
SMILES,cell viability [1] [%],cell viability [2] [%],cell viability [3] [%],cell viability [4] [%],cell viability [5] [%],cell viability [6] [%],cell viability [7] [%],cell viability [8] [%],cell viability [9] [%],cell viability [10] [%],cell viability [11] [%],cell viability [12] [%],cell viability [13] [%],cell viability [14] [%],cell viability [15] [%],cell viability [16] [%],cell viability [17] [%],cell viability [18] [%],cell viability [19] [%],cell viability [20] [%],cell viability [21] [%],cell viability [22] [%],cell viability [23] [%],cell viability [24] [%],cell viability [25] [%],cell viability [26] [%],cell viability [27] [%],cell viability [28] [%],cell viability [29] [%],cell viability [30] [%],cell viability [31] [%],cell viability [32] [%],cell viability [33] [%]
ClC1=CC=C2N/C3=N/C(=O)CN3CC2=C1Cl,123,124,120,134,126,119,132,138,125,115,105,–,–,–,–,–,–,–,–,–,–,–,–,–,–,–,–,–,–,–,–,–,–
O=C1CCC[C@@H]2[C@H]3CCCN4CCC[C@@H](CN12)[C@@H]34,44.2,65.4,55.2,65.6,72.7,73.2,72.3,78.1,67.5,71.3,73,73,87,75.5,82.4,92.8,92.2,93.2,84,63.1,80,72.6,60.4,79.1,62.4,89.7,73.9,82.6,77.6,72.3,64.2,68.5,68.3
O=C(CS(=O)Cc1ccco1)NC/C=C\COc1cc(CN2CCCCC2)ccn1 (stereo unspecified),78.7,86.2,89.4,96.9,93.8,99.5,102,96.7,102,100,97.3,86,91.3,90.7,87.1,96.8,95.5,107,106,93.6,102,103,81.5,93.7,98.4,75.9,97.1,88.4,106,97.3,110,99.8,93.9
CC[N+](CC)(CC)CCOc1cccc(OCC[N+](CC)(CC)CC)c1OCC[N+](CC)(CC)CC,–,–,–,–,–,–,–,–,–,–,–,134,118,124,110,123,131,116,119,126,123,111,117,137,121,112,144,144,122,115,128,122,128
c1ccc2c(Cc3c[nH]c4ccccc34)c[nH]c2c1,93.8,95.3,97.5,89.4,88.7,82.2,73.8,80.3,78.9,62.1,18.6,106,92.9,96,104,90.3,81.1,73.8,78.6,76.4,71.5,14.6,103,99,109,101,73.2,82.7,72.3,74.7,68.3,56.1,15.8
OC[C@H]1O[C@H](C[C@@H]1O)N2\C=C(F)/C(=O)NC2=O,124,113,120,86.7,55.3,47.7,46.1,44.4,35.1,31.5,12.1,119,115,121,121,130,102,86.9,80.3,33.9,40.6,16.3,110,92.8,88.5,40.5,35.1,26.5,31.1,25.6,23.3,18.1,10.8
O=[N+]([O-])c1ncc[nH]1,86,88.2,99.9,93.1,74.6,88,76.1,84,89.3,79.9,55.1,98.2,91.2,94.5,113,94.9,93.5,87.2,81.3,93.9,100,74.3,108,97.4,101,101,90.4,93.7,94.8,85.8,108,106,49.8
CC(C)(F)C[C@H](N[C@@H](c1ccc(-c2ccc([S+](C)(=O)[O-])cc2)cc1)C(F)(F)F)C(=O)NC1(C#N)CC1,88.3,93.8,93.1,96.1,95.9,91,96.3,97.5,104,95.9,91.6,90.4,116,112,117,114,105,93.1,109,96.5,90.3,85.8,105,117,124,107,119,126,108,114,115,123,103
CN(C)C1=CC(=CC=C1)C\2=C\3C(=O)N(NC3=C/C(=O)N2C)C4=CC=CC=C4Cl,98.5,105,111,107,102,103,98.1,16.9,5.63,5.04,6.91,–,–,–,–,–,–,–,–,–,–,–,109,109,136,116,104,124,95.9,7.24,5.43,6.87,7.46
N[S+](=O)([O-])c1cc2c(cc1Cl)NC(C(Cl)Cl)N[S+]2(=O)[O-] (stereo unspecified),89,95.6,98.8,86.3,105,103,102,91.5,111,116,111,103,110,90.3,107,114,113,122,123,115,129,109,95.1,108,113,102,124,122,121,132,142,106,125
CO[C@@]12[C@H](COC(N)=O)C/3=C(N1C[C@@H]4N[C@H]24)/C(=O)/C(=C(N)\C3=O)C,123,123,123,114,115,115,125,121,95.7,108,81.7,91.7,97.2,90.7,96.2,90,97.1,75.5,95.3,86.5,92.2,74,131,121,124,112,121,112,116,125,118,114,85.3
C/C(=N\NC(=S)N1CCC1)c1ccccn1,98.2,65.1,24,16.3,8.49,7,6.15,4.65,3.75,2.98,4.69,102,77.1,23.7,12.9,6.82,6.63,5.22,3.59,2.32,1.6,3.57,110,53.4,19.2,15.8,6.49,6.19,5.7,4.26,3.13,1.84,2.93
CCC[S+](=O)([O-])Nc1ccc(F)c(C(=O)c2c[nH]c3ncc(Cl)cc23)c1F,108,137,121,123,123,121,129,103,107,17.9,9.67,–,–,–,–,–,–,–,–,–,–,–,107,120,117,121,132,131,122,120,121,46.9,9.16
CC(C)=CCC/C(C)=C/CC/C(C)=C/CC/C(C)=C/CC/C(C)=C/CC/C(C)=C/CC/C(C)=C/CC/C(C)=C/CC/C(C)=C/CO,94.8,109,103,99.7,91.2,98.9,115,77.8,100,85.5,119,109,105,121,96.9,104,111,114,60.7,107,60.5,102,99.4,99.6,95.6,102,105,100,108,61.6,78.4,63.4,89.3
CN1C(=O)C(=C\C2=C1N=C(NC3=CC=CC(=C3)C(O)=O)N=C2)/C4=C(Cl)C=CC=C4Cl,106,114,108,112,110,116,107,110,104,67.4,31.9,103,124,132,114,125,123,90.9,101,84.2,65.6,25,106,118,136,130,121,115,100,116,97,73.1,37.8
OC1=CC=C(C=C1)\C2=C\OC3=C(C(=CC(=C3)O)O)C2=O,95.4,109,96.8,105,108,119,112,79.1,105,102,74.8,93.1,82.2,89.8,86,91,95.7,94.2,56.6,91.9,72.7,36.2,94.5,103,104,102,119,115,115,65.1,92.6,101,59
CC(=O)OC[C@H]1O[C@@H]([S-])[C@H](OC(C)=O)[C@@H](OC(C)=O)[C@@H]1OC(C)=O.CCP(CC)CC.[Au+],73.4,72.8,68.7,82.1,73.6,97.6,84,83.1,15.9,6.62,6.21,91.1,75,87.3,84.8,77.8,105,101,88.5,6.02,6.28,5.83,78.4,85.1,78.6,80.1,77.6,87.2,84.5,69.4,7.37,6.42,5.84

# Reference: the supplement of paper PMC11451515
